From patent EP0425902A1, “Use of isosorbide 2-mononitrate in the preparation of pharmaceutical compositions for treating angina pectoris” (ISCOFAR Sas di Paolo E. Ghirardi, priority 1989, dated 1991)
Where “and” joins values, the source holds several entries; their conditions need not be identical. Identical values can stand only once. Entries after “also recorded” stand apart in the source; their conditions may differ.

Assays:
isolated rabbit heart = experiment: Vasodilatory effect on isolated rabbit heart with vasopressin-induced spasm (coronary perfusion pressure)
Description: All nitroderivatives induce a tolerance phenomenon but the degree of the lack of the vasodilatory effect was lesser in the case of isosorbide 2-nitroderivative. […] Isolated rabbit hearts and aortic strips were used as experimental model to evaluate drugs acting on coronary resistance and vascular contractility.
Vasodilatory effect was evaluated on isolated rabbit heart in presence of vasopressin-induced spasm by using concentration of 10⁻⁵M of the tested compounds.

cyclic GMP = experiment: Cyclic GMP accumulation in laboratory tests
From the text: It has been furthermore shown through the laboratory tests that no relationship between the amount of the measured cyclic guanine mono-phosphate (GMP) and the extent of the inhibitory effect can be observed.
In our experiments, the development of nitrate tolerance seems to be related to cyclic GMP accumulation, being greater in the case of NTG, thus confirming that SH groups consumption is the molecular mechanism responsible for this phenomenon.

[1] = Long-period stability of active principle in tablets
[2] = Clinical trials of tongue absorption administration on onset of anginal attack; details: human, in vivo
[3] = Acute treatment by tongue absorption, pulmonary artery pressure by cardiac catheter; details: in vivo
rabbit aortic strips = experiment: Induction of nitrate tolerance in rabbit aortic strips preincubated with nitroderivative
[4] = Clinical trial, ergometer bicycle effort test before and after two months of chronic 2MN treatment; details: human, in vivo

SMILES	inhibition at 10 µM (isolated rabbit heart; Oryctolagus cuniculus, isolated rabbit heart, vasopressin-induced spasm, 10⁻⁵M, read-out: reduce coronary spasm (coronary perfusion pressure, CPP)) [%]	cyclic GMP accumulation / increase (cyclic GMP)	activity in reducing coronary perfusion pressure relative to other nitroderivatives (isolated rabbit heart)	loss of active principle in the pharmaceutical forms (tablets) in the long period [1]	effect on anginal attack [2]	Activity commences after taking the drug [3] [min]	Activity lasts (average) [3] [min]	Commencement of activity [3]	Max decrease in pulmonary artery pressure % [3]	degree of desensitization after induction of nitrate tolerance (rabbit aortic strips)	degree of tolerance induced (rabbit aortic strips)	Exercise time [4]	Max work tolerated (watt) [4]	S-T (mm) [4]	S-T Δ % [4]	anginal attacks, nitroglycerin consumption and arterial pressure [4]	tolerance after chronic treatment [4]
O=[N+]([O-])OCC(CO[N+](=O)[O-])O[N+](=O)[O-] [NTG, nitroglycerin, reference compound]	80	greater	–	–	–	–	–	–	–	–	–	–	–	–	–	–	–
O=[N+]([O-])O[C@H]1CO[C@H]2[C@@H]1OC[C@H]2O [2MN, isosorbide 2-mononitrate]	–	lesser increase	more active than 5MN and ISDN	minimal	able to prevent anginal attack or to cause its rapid regression; also recorded: Analogous results	3 to 4	80	180 s and 250 s and 230 s and 160 s and 200 s and 210 s and 204.2 s	20% and 38% and 30% and 27% and 31% and 40% and 29% and 30.7%	significantly lower	lesser degree of tolerance	8.6 ± 1.4 min and 8.9 ± 1.1 min	144±36 watt and 148±36 watt	1.5±0.7 mm and 1.8±0.9 mm	-29 (P<0.05) % and -25 (P<0.05) %	noted reduction	does not give rise to tolerance
